From ChEMBL document CHEMBL5465560, “Selectivity Literature for EUbOPEN Chemogenomic Library” (2024)
Blank lines part the entries; values can stand above or below the molecule they belong to.

Experiments:
[1] = biological target: T1, Dual specificity mitogen-activated protein kinase kinase 6 (Homo sapiens) (UniProt P52564); assay: Selectivity interaction (SelectScreen profiling (Invitrogen)) EUB0000607a MAP2K6; settings: at 2 µM
T1 sequence (whole entry): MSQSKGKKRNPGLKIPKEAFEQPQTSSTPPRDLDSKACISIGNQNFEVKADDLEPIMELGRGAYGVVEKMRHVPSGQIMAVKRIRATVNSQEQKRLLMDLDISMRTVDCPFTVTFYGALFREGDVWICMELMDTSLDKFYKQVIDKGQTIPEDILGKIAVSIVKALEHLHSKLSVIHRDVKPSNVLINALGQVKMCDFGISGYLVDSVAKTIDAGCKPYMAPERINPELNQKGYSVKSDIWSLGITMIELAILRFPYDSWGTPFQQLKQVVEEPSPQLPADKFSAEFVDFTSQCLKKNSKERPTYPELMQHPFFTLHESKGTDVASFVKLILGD

[2] = biological target: Serine/threonine-protein kinase 38 (Homo sapiens) (UniProt Q15208); assay: Selectivity interaction (ActivX KiNativ screen (kinase selectivity in THP-1 cell lysates)) EUB0000639a STK38; format: subcellular; settings: lysate
Chain of Serine/threonine-protein kinase 38 (Homo sapiens) (Q15208 2-465 limits assumed): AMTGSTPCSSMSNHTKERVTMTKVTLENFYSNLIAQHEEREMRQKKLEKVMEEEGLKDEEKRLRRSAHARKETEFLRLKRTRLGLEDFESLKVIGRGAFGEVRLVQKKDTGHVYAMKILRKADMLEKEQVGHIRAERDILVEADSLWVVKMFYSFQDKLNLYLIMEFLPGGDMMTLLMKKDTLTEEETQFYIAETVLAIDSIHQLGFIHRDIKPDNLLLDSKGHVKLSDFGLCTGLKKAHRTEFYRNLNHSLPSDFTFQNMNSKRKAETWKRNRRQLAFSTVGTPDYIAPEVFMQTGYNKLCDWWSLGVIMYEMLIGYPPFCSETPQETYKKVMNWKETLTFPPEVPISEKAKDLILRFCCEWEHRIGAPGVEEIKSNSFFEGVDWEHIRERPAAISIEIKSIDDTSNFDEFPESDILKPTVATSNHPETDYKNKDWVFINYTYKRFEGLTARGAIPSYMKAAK

[3] = biological target: 5'-AMP-activated protein kinase catalytic subunit alpha-1 (Homo sapiens, UniProt Q13131); assay: Selectivity interaction (ActivX KiNativ screen (kinase selectivity in THP-1 cell lysates)) EUB0000639a PRKAA1; format: subcellular; settings: lysate, at 1 µM
Chain of 5'-AMP-activated protein kinase catalytic subunit alpha-1 (Q13131 whole entry, looked up, canonical isoform): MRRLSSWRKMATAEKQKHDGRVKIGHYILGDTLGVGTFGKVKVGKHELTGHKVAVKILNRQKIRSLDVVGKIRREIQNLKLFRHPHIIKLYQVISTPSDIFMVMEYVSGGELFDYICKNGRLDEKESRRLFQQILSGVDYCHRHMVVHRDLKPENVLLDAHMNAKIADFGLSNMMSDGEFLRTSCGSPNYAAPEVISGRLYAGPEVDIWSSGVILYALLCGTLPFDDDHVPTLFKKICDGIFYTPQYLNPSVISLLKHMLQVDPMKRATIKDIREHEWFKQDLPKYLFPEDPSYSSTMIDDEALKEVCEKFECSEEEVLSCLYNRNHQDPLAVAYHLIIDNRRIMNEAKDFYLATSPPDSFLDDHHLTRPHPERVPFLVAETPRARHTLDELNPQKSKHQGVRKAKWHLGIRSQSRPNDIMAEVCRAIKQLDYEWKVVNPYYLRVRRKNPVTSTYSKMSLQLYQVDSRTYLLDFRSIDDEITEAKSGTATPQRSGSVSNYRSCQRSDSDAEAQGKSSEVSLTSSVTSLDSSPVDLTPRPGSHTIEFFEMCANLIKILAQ

[4] = biological target: Casein kinase I isoform epsilon (Homo sapiens, UniProt P49674); assay: Selectivity interaction (Kinase panel (Invitrogen)) EUB0000639a CSNK1E; settings: at 200 nM
Chain of Casein kinase I isoform epsilon (P49674 whole entry, looked up, canonical isoform): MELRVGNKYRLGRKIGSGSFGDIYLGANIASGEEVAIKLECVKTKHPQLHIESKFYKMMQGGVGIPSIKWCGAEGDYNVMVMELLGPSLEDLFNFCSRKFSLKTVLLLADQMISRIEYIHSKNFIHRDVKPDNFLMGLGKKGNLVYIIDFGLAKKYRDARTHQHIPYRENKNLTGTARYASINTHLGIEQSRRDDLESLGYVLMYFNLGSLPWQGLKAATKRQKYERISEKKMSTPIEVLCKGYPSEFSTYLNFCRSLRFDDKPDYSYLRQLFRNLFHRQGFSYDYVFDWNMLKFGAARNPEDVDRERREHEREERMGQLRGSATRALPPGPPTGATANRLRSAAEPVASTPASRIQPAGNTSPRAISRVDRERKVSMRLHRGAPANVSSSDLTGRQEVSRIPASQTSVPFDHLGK

[5] = biological target: Non-receptor tyrosine-protein kinase TYK2 (Homo sapiens, UniProt P29597); assay: Selectivity interaction (KinomeScan (DiscoverX)) EUB0000695a TYK2; settings: at 100 nM
Chain of Non-receptor tyrosine-protein kinase TYK2 (P29597 whole entry): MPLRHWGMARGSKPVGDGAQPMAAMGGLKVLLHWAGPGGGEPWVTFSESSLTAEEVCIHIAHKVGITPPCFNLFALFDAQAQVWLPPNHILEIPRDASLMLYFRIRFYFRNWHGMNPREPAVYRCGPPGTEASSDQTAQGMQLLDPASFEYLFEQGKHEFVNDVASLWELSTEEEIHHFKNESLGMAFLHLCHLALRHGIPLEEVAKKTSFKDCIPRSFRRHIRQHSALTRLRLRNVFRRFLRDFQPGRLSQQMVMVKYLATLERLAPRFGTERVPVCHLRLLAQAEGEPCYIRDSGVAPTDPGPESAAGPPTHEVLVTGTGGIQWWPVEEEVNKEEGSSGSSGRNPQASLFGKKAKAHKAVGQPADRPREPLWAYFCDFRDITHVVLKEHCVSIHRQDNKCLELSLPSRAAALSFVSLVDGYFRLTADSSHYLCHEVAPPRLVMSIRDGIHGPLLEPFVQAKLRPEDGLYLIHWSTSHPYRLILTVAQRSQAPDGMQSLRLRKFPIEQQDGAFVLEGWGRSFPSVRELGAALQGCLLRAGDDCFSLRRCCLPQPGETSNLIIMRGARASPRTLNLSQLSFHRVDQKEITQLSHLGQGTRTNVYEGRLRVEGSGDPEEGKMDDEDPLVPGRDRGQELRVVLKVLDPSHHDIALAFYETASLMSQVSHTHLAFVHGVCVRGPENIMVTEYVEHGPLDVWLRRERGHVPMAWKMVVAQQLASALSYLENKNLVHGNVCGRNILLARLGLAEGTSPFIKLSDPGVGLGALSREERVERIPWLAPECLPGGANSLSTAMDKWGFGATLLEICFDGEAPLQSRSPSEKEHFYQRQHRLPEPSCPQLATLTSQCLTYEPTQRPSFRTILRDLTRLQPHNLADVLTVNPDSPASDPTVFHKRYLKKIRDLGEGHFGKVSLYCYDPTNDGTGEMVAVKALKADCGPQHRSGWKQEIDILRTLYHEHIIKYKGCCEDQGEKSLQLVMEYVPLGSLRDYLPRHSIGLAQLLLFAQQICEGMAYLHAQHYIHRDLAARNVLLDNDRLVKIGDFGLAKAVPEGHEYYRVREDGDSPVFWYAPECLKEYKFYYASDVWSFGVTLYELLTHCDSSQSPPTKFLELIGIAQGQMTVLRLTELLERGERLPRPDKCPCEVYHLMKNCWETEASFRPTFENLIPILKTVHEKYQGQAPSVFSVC

[6] = biological target: Receptor tyrosine-protein kinase erbB-2 (Homo sapiens, UniProt P04626); assay: Selectivity interaction (Radiometric kinase assay (using 10 uM ATP)) EUB0000601a ERBB2
[7] = biological target: Macrophage colony-stimulating factor 1 receptor (Homo sapiens) (UniProt P07333); assay: Selectivity interaction (KinomeScan (DiscoverX)) EUB0000595a CSF1R; settings: at 10 µM
[8] = biological target: T2, Serine/threonine-protein kinase tousled-like 1 (Homo sapiens) (UniProt Q9UKI8); settings: at 10 µM
T2 sequence (whole entry): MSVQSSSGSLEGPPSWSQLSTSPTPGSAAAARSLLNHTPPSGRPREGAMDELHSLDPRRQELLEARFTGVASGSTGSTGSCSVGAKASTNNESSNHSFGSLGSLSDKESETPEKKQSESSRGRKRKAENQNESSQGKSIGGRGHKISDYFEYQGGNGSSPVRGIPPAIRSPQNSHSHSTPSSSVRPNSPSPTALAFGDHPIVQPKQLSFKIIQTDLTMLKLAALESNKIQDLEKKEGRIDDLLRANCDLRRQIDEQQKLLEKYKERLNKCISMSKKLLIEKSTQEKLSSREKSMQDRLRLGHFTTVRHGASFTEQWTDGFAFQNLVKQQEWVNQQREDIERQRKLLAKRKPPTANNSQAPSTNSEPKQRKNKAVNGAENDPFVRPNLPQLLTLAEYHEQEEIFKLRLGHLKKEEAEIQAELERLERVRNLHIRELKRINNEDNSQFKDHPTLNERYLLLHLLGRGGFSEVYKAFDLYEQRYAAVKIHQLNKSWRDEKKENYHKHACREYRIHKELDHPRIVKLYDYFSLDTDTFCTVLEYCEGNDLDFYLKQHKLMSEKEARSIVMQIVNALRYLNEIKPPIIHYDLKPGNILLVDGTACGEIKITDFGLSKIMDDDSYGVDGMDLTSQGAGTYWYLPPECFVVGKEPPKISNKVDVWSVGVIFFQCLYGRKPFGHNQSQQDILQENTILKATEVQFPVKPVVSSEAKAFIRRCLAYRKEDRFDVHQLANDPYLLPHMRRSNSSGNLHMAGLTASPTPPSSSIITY

[9] = tested on: Hepatocyte growth factor receptor (Homo sapiens), P08581 [M1250T]; settings: at 10 µM
Chain of Hepatocyte growth factor receptor (Homo sapiens), P08581 [M1250T] (P08581 whole entry M1250T): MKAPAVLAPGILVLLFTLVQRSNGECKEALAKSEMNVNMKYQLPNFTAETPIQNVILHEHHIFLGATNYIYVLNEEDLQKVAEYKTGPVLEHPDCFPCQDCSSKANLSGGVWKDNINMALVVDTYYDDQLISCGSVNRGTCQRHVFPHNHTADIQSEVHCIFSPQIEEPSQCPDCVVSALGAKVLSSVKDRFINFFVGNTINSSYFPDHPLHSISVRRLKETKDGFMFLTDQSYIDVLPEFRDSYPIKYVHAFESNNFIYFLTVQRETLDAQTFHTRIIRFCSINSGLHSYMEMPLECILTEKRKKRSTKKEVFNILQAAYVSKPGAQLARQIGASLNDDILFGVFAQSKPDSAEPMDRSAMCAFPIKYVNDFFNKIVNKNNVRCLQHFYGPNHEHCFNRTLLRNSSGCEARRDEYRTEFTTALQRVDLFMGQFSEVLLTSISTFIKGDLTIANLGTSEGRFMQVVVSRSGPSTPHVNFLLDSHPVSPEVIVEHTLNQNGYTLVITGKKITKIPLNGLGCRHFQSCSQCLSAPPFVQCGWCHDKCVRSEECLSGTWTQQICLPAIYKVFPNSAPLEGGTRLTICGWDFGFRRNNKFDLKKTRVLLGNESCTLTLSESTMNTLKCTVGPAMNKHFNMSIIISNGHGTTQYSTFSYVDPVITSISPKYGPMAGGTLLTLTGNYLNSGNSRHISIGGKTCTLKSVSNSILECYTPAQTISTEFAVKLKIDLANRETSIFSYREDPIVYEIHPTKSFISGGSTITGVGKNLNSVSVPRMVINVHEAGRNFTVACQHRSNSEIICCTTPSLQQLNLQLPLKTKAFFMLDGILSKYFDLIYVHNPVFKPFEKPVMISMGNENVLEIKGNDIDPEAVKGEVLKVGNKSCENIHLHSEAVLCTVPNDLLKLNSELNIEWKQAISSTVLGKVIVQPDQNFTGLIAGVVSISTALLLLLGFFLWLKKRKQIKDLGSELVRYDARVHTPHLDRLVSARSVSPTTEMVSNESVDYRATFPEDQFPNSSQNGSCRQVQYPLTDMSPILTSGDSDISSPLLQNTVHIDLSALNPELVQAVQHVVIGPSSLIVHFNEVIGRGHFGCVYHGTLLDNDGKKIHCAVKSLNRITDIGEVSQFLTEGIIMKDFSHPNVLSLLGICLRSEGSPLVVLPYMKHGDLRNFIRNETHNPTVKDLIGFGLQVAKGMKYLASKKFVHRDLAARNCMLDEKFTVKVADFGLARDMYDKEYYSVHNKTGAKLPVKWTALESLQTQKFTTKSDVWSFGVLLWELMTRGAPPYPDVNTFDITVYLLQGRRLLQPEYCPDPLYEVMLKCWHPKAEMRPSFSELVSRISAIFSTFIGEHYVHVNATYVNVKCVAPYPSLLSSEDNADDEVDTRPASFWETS

[10] = biological target: Serine/threonine-protein kinase pim-1 (Homo sapiens, UniProt P11309); assay: Selectivity interaction (Ambit KINOMEscan and KiNATiv profiling in Jurkat cells) EUB0000090b PIM1; format: cell-based; settings: at 1 µM
Chain of Serine/threonine-protein kinase pim-1 (P11309 whole entry, looked up): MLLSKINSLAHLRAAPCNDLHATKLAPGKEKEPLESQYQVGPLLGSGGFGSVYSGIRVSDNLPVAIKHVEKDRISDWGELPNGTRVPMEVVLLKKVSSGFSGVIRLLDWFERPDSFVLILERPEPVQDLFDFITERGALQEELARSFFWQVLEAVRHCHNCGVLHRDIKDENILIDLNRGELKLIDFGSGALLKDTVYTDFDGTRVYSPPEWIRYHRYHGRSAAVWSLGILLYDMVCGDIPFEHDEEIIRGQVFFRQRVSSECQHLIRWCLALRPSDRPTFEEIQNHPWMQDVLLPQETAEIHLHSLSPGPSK

[11] = biological target: T3, Muscle, skeletal receptor tyrosine-protein kinase (Homo sapiens) (UniProt O15146); assay: Selectivity interaction (KinomeScan (DiscoverX)) EUB0000655a MUSK; settings: at 10 µM
T3 sequence (whole entry): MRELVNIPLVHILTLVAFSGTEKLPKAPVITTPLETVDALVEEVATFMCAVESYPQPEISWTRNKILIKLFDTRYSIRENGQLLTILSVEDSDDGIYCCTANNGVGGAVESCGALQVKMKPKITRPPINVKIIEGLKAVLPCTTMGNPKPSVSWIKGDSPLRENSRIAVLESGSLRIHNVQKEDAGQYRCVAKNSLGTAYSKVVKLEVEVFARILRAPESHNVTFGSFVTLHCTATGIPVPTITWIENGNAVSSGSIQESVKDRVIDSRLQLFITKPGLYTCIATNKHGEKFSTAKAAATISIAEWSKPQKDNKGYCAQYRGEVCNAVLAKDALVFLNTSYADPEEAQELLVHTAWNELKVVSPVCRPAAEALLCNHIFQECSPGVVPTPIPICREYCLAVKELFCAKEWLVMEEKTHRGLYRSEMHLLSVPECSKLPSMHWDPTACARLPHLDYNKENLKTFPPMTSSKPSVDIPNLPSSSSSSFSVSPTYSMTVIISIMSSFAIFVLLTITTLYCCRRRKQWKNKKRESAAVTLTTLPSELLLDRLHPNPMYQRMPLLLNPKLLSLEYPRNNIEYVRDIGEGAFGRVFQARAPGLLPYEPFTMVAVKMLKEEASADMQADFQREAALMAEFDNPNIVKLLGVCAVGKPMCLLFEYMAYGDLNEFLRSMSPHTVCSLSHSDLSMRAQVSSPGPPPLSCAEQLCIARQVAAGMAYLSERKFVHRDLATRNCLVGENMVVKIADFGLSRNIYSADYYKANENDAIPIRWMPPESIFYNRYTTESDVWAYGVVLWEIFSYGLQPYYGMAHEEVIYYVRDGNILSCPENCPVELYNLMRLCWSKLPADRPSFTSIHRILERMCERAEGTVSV

[12] = biological target: Homeodomain-interacting protein kinase 3 (Homo sapiens, UniProt Q9H422); assay: Selectivity interaction (KinomeScan (DiscoverX)) EUB0000655a HIPK3; settings: at 10 µM
[13] = biological target: Sodium-dependent dopamine transporter (Homo sapiens, UniProt Q01959); assay: Selectivity interaction (GPCR panel (PDSP screen)) EUB0001079a SLC6A3; settings: at 10 µM
[14] = biological target: RAC-beta serine/threonine-protein kinase (Homo sapiens) (UniProt P31751); settings: at 10 µM
Chain of RAC-beta serine/threonine-protein kinase (Homo sapiens) (P31751 whole entry): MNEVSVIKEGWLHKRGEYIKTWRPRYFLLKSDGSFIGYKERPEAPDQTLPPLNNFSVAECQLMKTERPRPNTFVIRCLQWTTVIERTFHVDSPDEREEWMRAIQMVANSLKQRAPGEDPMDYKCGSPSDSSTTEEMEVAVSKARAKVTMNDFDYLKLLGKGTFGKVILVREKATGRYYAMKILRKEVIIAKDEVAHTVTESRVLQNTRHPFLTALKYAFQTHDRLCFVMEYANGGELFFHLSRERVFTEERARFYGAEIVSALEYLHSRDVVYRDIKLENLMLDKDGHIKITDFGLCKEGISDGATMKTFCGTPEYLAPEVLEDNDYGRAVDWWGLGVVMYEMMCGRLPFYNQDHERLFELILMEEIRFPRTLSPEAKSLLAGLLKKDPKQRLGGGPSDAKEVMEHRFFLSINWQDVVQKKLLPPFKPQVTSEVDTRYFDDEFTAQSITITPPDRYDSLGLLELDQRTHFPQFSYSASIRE

Compound: CNC(=O)Nc1ccc(-c2nc(N3CC4CCC(C3)O4)c3cnn(C4CCC5(CC4)OCCO5)c3n2)cc1
% of inhibition [1]: 8%

% of inhibition ([2]; at 0.01 µM): -3.8%
% of inhibition ([2]; at 0.04 µM): 5.4%
% of inhibition ([2]; at 0.2 µM): 31.8%
% of inhibition ([2]; at 1 µM): 70.6%
% of inhibition ([2]; at 5 µM): 90%
% of inhibition [3]: 5.9%
% of inhibition [4]: 42.3%
Compound: CC[C@@H]1[C@H](F)C(=O)N[C@@H]1COc1nccc2cc(C(N)=O)c(OC)cc12 [ZIMLOVISERTIB]

Compound: Cc1cc(F)c(C(=O)Nc2cccc(-c3nncn3C(C)C)n2)cc1-n1cnc(C2CC2)c1
% of control [5]: 73%

IC50 [6]: > 10 µM
Compound: CCc1cc(Nc2nccc(-c3c(-c4ccc(OC)c(C(=O)Nc5c(F)cccc5F)c4)nc4ccccn34)n2)c(OC)cc1N1CCC(N2CCN(S(C)(=O)=O)CC2)CC1

Compound: COCC(=O)NC/C=C/c1ccc2ncnc(Nc3ccc(Oc4ccc(C)nc4)c(C)c3)c2c1 [CP-724714]
% of control [7]: 100%
% of control [8]: 79%
% of control [9]: 100%

Compound: CN(C)C/C=C/C(=O)Nc1ccc(C(=O)N2CCCC(Nc3ncc(Cl)c(-c4c[nH]c5ccccc45)n3)C2)cc1 (stereo not drawn)
% of control [10]: 100%

Compound: CN(C)CCOc1ccc(-c2nc(-c3ccncc3)c(-c3ccc4c(c3)CC/C4=N\O)[nH]2)cc1
% of control [11]: 98%
% of control [12]: 62%

Compound: Nc1cnc(N2CCc3cc(S(=O)(=O)Nc4c(F)cc(Cl)cc4F)cc(N4CCCC4=O)c32)nc1 [TP-020n]
% of inhibition [13]: 20.2%

Compound: Cc1cc([C@@H](C)Nc2ccccc2C(=O)O)c2nc(N3CCOCC3)cc(=O)n2c1 [AZD-6482]
% of control [14]: 86%
